System: AMPAR
Test: AMPAR EPSCs in DCN cartwheel cells in brain slices, ZX1 potentiation
Type: cell-based, mice
Conditions: slices treated with peptide 3 μM; ZX1 100 μM; −70 mV
Protocol: Male and female mice (postpartum days 18-28) were anesthetized with isoflurane and sacrificed. Brains were rapidly dissected and sectioned into 210 μm thick coronal slices containing dorsal cochlear nucleus (DCN) on a vibratome (Leica, VT1000S). Slices were incubated in ACSF containing 130 mM NaCl, 3 mM KCl, 2.4 mM CaCl2, 1.3 mM MgCl2, 20 mM NaHCO3, 3 mM HEPES, and 10 mM glucose, saturated with 95% O2/5% CO2 (vol/vol), pH ˜7.3, ˜300 mOsm at 35° C. for 1 hour before being moved to room temperature. During preparation, ACSF was treated with Chelex 100 resin to remove any contaminating zinc. After applying Chelex to the ACSF, high-purity calcium and magnesium salts were added (99.995% purity). All plastic and glassware were washed with 5% high-purity nitric acid.
For brain slice recordings, whole-cell recordings of NMDAR EPSCs in slice DCN cartwheel cells were obtained with micropipettes (3-6 MΩ) containing 128 mM Cs(CH3O3S), 4 mM MgCl2·6H2O, 4 mM Na2ATP, 10 mM HEPES, 0.3 mM Tris-GTP, 10 mM Tris-phosphocreatine, 1 mM CsEGTA, 1 mM, QX-314, 3 mM sodium ascorbate, pH=˜7.2, 300 mOsm. […] NMDAR EPSCs were recorded in voltage clamp mode, at a holding potential of +40 mV, in the presence of DNQX (20 μM, AMPA and kainate receptor antagonist), SR95531. […] AMPA EPSCs were recorded in voltage clamp mode at a holding potential of −70 mV in the presence of SR9551. […]

Row | Sequence | ZX1 potentiation of AMPAR EPSCs [%]
1 | SNLSDSYDR [scN2AZ, reference compound] | 30.3±10.24
2 | NDSYLRSSL [Peptide N2AZ] | 29.3±6.70

From patent publication US20230034660A1, “PEPTIDES THAT ENHANCE NMDA RECEPTOR FUNCTION AND USE THEREOF” (University of Pittsburgh - Of the Commonwealth System of …, priority 2019, published 2023)
